# Results as given in the supplement of paper PMC11061612.
# Experiments:
# Assay in all cases: Bliss excess, mean over the matrix (fraction); higher = more synergy
# [1] = test system: OCI-AML5 (Acute Myeloid Leukemia)
# Summary of the method: (§1)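 Bliss excess equals the observed combination effect minus the expected value EA + EB − EA·EB, where EA and EB are the effects of each agent alone. Combination Emax is the second-highest inhibition within the matrix. Inhibition was scaled from CellTiter-Glo 2.0 luminescence, with 0 set by vehicle wells and 1 by blank wells, after 72 hours of two-drug dosing of cells plated in 1536-well plates.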
# [2] = test system: FLO-1 (Esophageal Adenocarcinoma)
# Summary of the method: as §1
# [3] = test system: PANC-02-03 (Pancreatic Carcinoma)
# Summary of the method: as §1
# [4] = test system: JHH-1 (Hepatocellular Carcinoma)
# Summary of the method: as §1
# 786-0 (Kidney Carcinoma) = test system: 786-0 (Kidney Carcinoma)
# Summary of the method: as §1
# [5] = test system: SNU-175 (Colorectal Carcinoma)
# Summary of the method: as §1
# [6] = test system: NKM-1 (Acute Myeloid Leukemia)
# Summary of the method: as §1
# [7] = test system: HSC-3 (Oral Cavity Carcinoma)
# Summary of the method: as §1
# [8] = test system: AsPC-1 (Pancreatic Carcinoma)
# Summary of the method: as §1
# [9] = test system: SW684 (Other Solid Carcinomas)
# Summary of the method: as §1
# HuO-3N1 (Osteosarcoma) = test system: HuO-3N1 (Osteosarcoma)
# Summary of the method: as §1
# [10] = test system: NCI-H1623 (Lung Adenocarcinoma)
# Summary of the method: as §1
# [11] = test system: EB-3 (Burkitt's Lymphoma)
# Summary of the method: as §1
# [12] = test system: OV-90 (Ovarian Carcinoma)
# Summary of the method: as §1
# ES-2 (Ovarian Carcinoma) = test system: ES-2 (Ovarian Carcinoma)
# Summary of the method: as §1
# [13] = test system: LAMA-84 (Chronic Myelogenous Leukemia)
# Summary of the method: as §1
# [14] = test system: NCI-H1155 (Non-Small Cell Lung Carcinoma)
# Summary of the method: as §1
# [15] = test system: CML-T1 (Chronic Myelogenous Leukemia)
# Summary of the method: as §1
# [16] = test system: RPMI-8866 (Chronic Myelogenous Leukemia)
# Summary of the method: as §1
# [17] = test system: Calu-6 (Non-Small Cell Lung Carcinoma)
# Summary of the method: as §1
SMILES,Bliss excess [1],Bliss excess [2],Bliss excess [3],Bliss excess [4],Bliss excess (786-0 (Kidney Carcinoma)),Bliss excess [5],Bliss excess [6],Bliss excess [7],Bliss excess [8],Bliss excess [9],Bliss excess (HuO-3N1 (Osteosarcoma)),Bliss excess [10],Bliss excess [11],Bliss excess [12],Bliss excess (ES-2 (Ovarian Carcinoma)),Bliss excess [13],Bliss excess [14],Bliss excess [15],Bliss excess [16],Bliss excess [17]
"CN(CCO)CC[C@H](CSc1ccccc1)Nc1ccc(S(=O)(=O)NC(=O)c2ccc(N3CCC([C@@H](O)c4ccccc4-c4ccc(Cl)cc4)CC3)cc2)cc1S(=O)(=O)C(F)(F)F [AZD4320] + C1CN(CCC1(C(=O)N[C@@H](CCO)C2=CC=C(C=C2)Cl)N)C3=NC=NC4=C3C=CN4 [Capivasertib] (first compound max 1 µM, 7x7, partner max 3 µM)",0.0104,-0.039,-0.0617,-0.149,-0.0318,-0.0205,0.0099,-0.037,-0.0665,-0.0619,-0.0109,-0.002,-0.0462,-0.0635,-0.0346,-0.0418,0.0147,0.0023,-0.0553,0.0004
"COc1cccc(OCCCN)c1-c1cc(Nc2cnc(C#N)cn2)n[nH]1 [Prexasertib] + Cc1cc2ncnn2cc1Nc1ncc2c(n1)n(C1CCOCC1)c(=O)n2C [AZD7648] (first compound max 1 µM, 7x7, partner max 10 µM)",0.0718,-0.0817,-0.0019,0.0093,-0.0276,0.0311,-0.0271,-0.0096,-0.0242,-0.0408,-0.0498,-0.0588,-0.0106,0.0252,-0.0357,-0.0208,0.0039,-0.0175,0.0455,-0.0354
"CC1(C)CCC(CN2CCN(c3ccc(C(=O)NS(=O)(=O)c4ccc(NCC5CCOCC5)c([N+](=O)[O-])c4)c(Oc4cnc5[nH]ccc5c4)c3)CC2)=C(c2ccc(Cl)cc2)C1 [Venetoclax] + COc1cc(Nc2ncc3c(n2)-c2ccc(Cl)cc2C(c2c(F)cccc2OC)=NC3)ccc1C(=O)O [Alisertib] (first compound max 1 µM, 7x7, partner max 10 µM)",0.17,-0.0379,-0.0527,0.0308,-0.0114,0.007,0.0087,0.0079,-0.0701,-0.0688,-0.0154,0.045,-0.0103,-0.0536,-0.0017,-0.0447,0.346,0.0154,0.0475,-0.0071
"C[C@@H](c1ccc2nccn2c1)n1nnc2ncc(-c3cnn(C)c3)nc21 [Savolitinib] + CN(CC[C@H](CSC1=CC=CC=C1)NC2=C(C=C(C=C2)S(=O)(=O)NC(=O)C3=CC=C(C=C3)N4CCC(CC4)[C@H](C5=CC=CC=C5C6=CC=C(C=C6)Cl)O)S(=O)(=O)C(F)(F)F)CCO [AZD4320] (first compound max 1 µM, 7x7, partner max 1 µM)",-0.0418,–,–,-0.0341,-0.0642,-0.045,–,-0.0152,-0.0896,–,-0.0513,-0.0231,–,–,-0.0383,–,-0.0513,–,-0.0815,-0.005
"Cn1cnc2c(F)c(Nc3ccc(Br)cc3Cl)c(C(=O)NOCCO)cc21 [Selumetinib] + CC(C)n1c(=O)n(C)c2cnc3cc(F)c(-c4ccc(OCCCN5CCCCC5)nc4)cc3c21 [AZD1390] (first compound max 10 µM, 7x7, partner max 0.3 µM)",-0.0198,-0.0276,-0.0139,-0.0268,-0.0587,0.0063,-0.107,-0.0424,-0.0093,-0.0616,-0.0618,0.0076,-0.0806,0.0131,-0.0215,-0.0309,-0.0679,-0.0441,-0.0193,-0.0588
"CN(C)CCCOc1ccc(-c2ccc3ncc4c(c3c2)n(C2CCOCC2)c(=O)n4C)cn1 [AZD0156] + C=CCn1c(=O)c2cnc(Nc3ccc(N4CCN(C)CC4)cc3)nc2n1-c1cccc(C(C)(C)O)n1 [AZD1775] (first compound max 1 µM, partner max 1 µM)",-0.0359,0.0285,-0.026,-0.0501,0.0005,0.0169,-0.0605,-0.0534,-0.0179,-0.076,-0.0505,-0.065,-0.0289,-0.0335,-0.0249,-0.037,-0.0213,-0.0271,-0.0175,-0.0479
"CCc1c2c(nc3ccc(O)cc13)-c1cc3c(c(=O)n1C2)COC(=O)[C@]3(O)CC [SN-38] + CN(C)CCCOc1ccc(-c2ccc3ncc4c(c3c2)n(C2CCOCC2)c(=O)n4C)cn1 [AZD0156] (first compound max 0.3 µM, 7x7, partner max 1 µM)",-0.0231,0.0218,-0.007,-0.018,0.0032,0.0229,0.033,-0.0063,-0.029,-0.0457,-0.0592,-0.0496,-0.0659,-0.012,0.0144,0.08,0.0268,0.0241,0.0969,0.0491
"CC1(C)CCC(CN2CCN(c3ccc(C(=O)NS(=O)(=O)c4ccc(NCC5CCOCC5)c([N+](=O)[O-])c4)c(Oc4cnc5[nH]ccc5c4)c3)CC2)=C(c2ccc(Cl)cc2)C1 [Venetoclax] + C[C@@H](Nc1cc(F)cc(F)c1)c1cc(C(=O)N(C)C)cc2c(=O)cc(N3CCOCC3)oc12 [AZD8186] (first compound max 1 µM, 7x7, partner max 3 µM)",0.0529,-0.0712,-0.0527,-0.0413,-0.0095,-0.0201,0.0937,-0.0286,-0.0817,-0.0862,0.0158,-0.0215,-0.0366,-0.0441,-0.0199,-0.0006,-0.026,0.0023,0.0151,-0.0446
"COc1nnc2ccc(N3CCC(c4ccc(OCCN5CCN(C)C(=O)[C@H]5C)cc4)CC3)nn12 [AZD5153] + Cc1c2c(nn1C)CSCc1cc(n(C)n1)CSc1cc(c3ccccc3c1)OCCCc1c(C(=O)O)n(C)c3c-2c(Cl)ccc13 [AZD5991] (first compound max 1 µM, 7x7, partner max 1 µM)",0.134,-0.0352,-0.0493,0.106,-0.0166,0.0113,-0.0491,-0.0069,-0.0639,-0.108,-0.0118,0.049,-0.0048,-0.0389,-0.0534,0.005,-0.0091,0.0065,-0.0361,-0.131
"CN(C)CCCOc1ccc(-c2ccc3ncc4c(c3c2)n(C2CCOCC2)c(=O)n4C)cn1 [AZD0156] + O=C(c1cc(Cc2n[nH]c(=O)c3ccccc23)ccc1F)N1CCN(C(=O)C2CC2)CC1 [Olaparib] (first compound max 3 µM, partner max 3 µM)",0.0103,0.0512,0.0278,0.0084,0.0418,0.105,0.0587,0.132,0.005,-0.0388,-0.0328,0.0126,0.0234,0.035,0.0327,0.167,0.103,0.178,0.0607,0.0096
"COc1nnc2ccc(N3CCC(c4ccc(OCCN5CCN(C)C(=O)[C@H]5C)cc4)CC3)nn12 [AZD5153] + CN(CC[C@H](CSC1=CC=CC=C1)NC2=C(C=C(C=C2)S(=O)(=O)NC(=O)C3=CC=C(C=C3)N4CCC(CC4)[C@H](C5=CC=CC=C5C6=CC=C(C=C6)Cl)O)S(=O)(=O)C(F)(F)F)CCO [AZD4320] (first compound max 1 µM, 7x7, partner max 1 µM)",0.0299,–,–,0.0585,0.0508,0.002,–,0.0794,-0.08,–,0.0645,-0.0087,–,–,0.0277,–,0.0603,–,-0.0318,-0.0429
"C=CCn1c(=O)c2cnc(Nc3ccc(N4CCN(C)CC4)cc3)nc2n1-c1cccc(C(C)(C)O)n1 [AZD1775] + C[C@@H]1COCCN1C2=NC(=NC(=C2)C3(CC3)[S@](=N)(=O)C)C4=C5C=CNC5=NC=C4 [AZD6738] (first compound max 1 µM, partner max 10 µM)",0.005,-0.0531,-0.0701,0.0194,0.109,0.039,0.0023,0.0038,-0.0571,-0.0662,0.0162,0.0057,0.0002,-0.102,0.0105,0.0054,0.0817,0.0296,0.0078,–
"CCc1c2c(nc3ccc(O)cc13)-c1cc3c(c(=O)n1C2)COC(=O)[C@]3(O)CC [SN-38] + O=C(c1cc(Cc2n[nH]c(=O)c3ccccc23)ccc1F)N1CCN(C(=O)C2CC2)CC1 [Olaparib] (first compound max 0.3 µM, 7x7, partner max 10 µM)",–,0.0371,0.0609,0.0041,0.0937,0.0238,0.0274,0.0263,-0.0277,-0.0048,0.075,–,-0.0075,0.0633,–,0.0833,0.0532,-0.0065,0.0155,0.0211
"CC(=O)c1c(C)c2cnc(Nc3ccc(N4CCNCC4)cn3)nc2n(C2CCCC2)c1=O [Palbociclib] + CN(CC[C@H](CSC1=CC=CC=C1)NC2=C(C=C(C=C2)S(=O)(=O)NC(=O)C3=CC=C(C=C3)N4CCC(CC4)[C@H](C5=CC=CC=C5C6=CC=C(C=C6)Cl)O)S(=O)(=O)C(F)(F)F)CCO [AZD4320] (first compound max 10 µM, 7x7, partner max 1 µM)",-0.0327,–,–,-0.0291,-0.0388,-0.0082,–,-0.0254,-0.129,–,-0.0289,-0.0783,–,–,-0.0649,–,0.0351,–,-0.0036,0.0279
"Cc1c2c(nn1C)CSCc1cc(n(C)n1)CSc1cc(c3ccccc3c1)OCCCc1c(C(=O)O)n(C)c3c-2c(Cl)ccc13 [AZD5991] + Cn1cnc2c(F)c(Nc3ccc(Br)cc3Cl)c(C(=O)NOCCO)cc21 [Selumetinib] (first compound max 1 µM, 7x7, partner max 3 µM)",0.0422,-0.055,-0.003,0.0408,0.0107,–,-0.0014,0.0137,-0.0325,-0.0091,-0.0008,0.0184,-0.0424,-0.0143,0.0389,0.102,0.0008,0.0516,-0.0462,0.0572
